# “Also recorded” adds a separate entry of the source. Active and inactive are the calls of the source. The rule behind the calls is not given here.
# System: CCRIS mutagenicity, Ames/micronucleus/aberration tests
# Assay: CCRIS mutagenicity studies
smiles,measurement,setting,value
CC/C(=C(/CC)c1ccc(O)cc1)c1ccc(O)cc1,mutagenic call,"End Point: IN VITRO CHROMOSOMAL ABERRATIONS, Test System: CHINESE HAMSTER CELL DON (22;XY), Metabolic Activation: NONE",active; positive (ploidy changes)
same,mutagenic call,"End Point: IN VITRO CHROMOSOMAL ABERRATIONS, Test System: HUMAN LYMPHOCYTES, Metabolic Activation: NONE, Method: FISH","active; positive (ploidy changes in chromosomes 1, 9, 16); also recorded: active; positive (ploidy changes in chromosomes 7 and 9)"
same,mutagenic call,"End Point: IN VITRO CHROMOSOMAL ABERRATIONS, Test System: HUMAN PERIPHERAL LYMPHOCYTES, Metabolic Activation: NONE",inactive; negative
same,mutagenic call,"End Point: IN VITRO CHROMOSOMAL ABERRATIONS, Test System: SYRIAN HAMSTER EMBRYO (SHE) CELLS, Metabolic Activation: NONE",active; positive (ploidy changes)
same,mutagenic call,"End Point: IN VITRO MICRONUCLEUS, Test System: HUMAN PERIPHERAL LYMPHOCYTES, Metabolic Activation: NONE",active; positive
same,mutagenic call,"End Point: IN VITRO MICRONUCLEUS, Test System: V79 CELLS, Metabolic Activation: NONE",active; positive
same,mutagenic call,"Test System: AMES SALMONELLA TYPHIMURIUM, Strain/Indicator: TA97, Metabolic Activation: HAMSTER LIVER S-9, AROCLOR 1254 (10%), Method: PREINCUBATION",inactive; negative
same,mutagenic call,"Test System: AMES SALMONELLA TYPHIMURIUM, Strain/Indicator: TA97, Metabolic Activation: HAMSTER LIVER S-9, AROCLOR 1254 (30%), Method: PREINCUBATION",inactive; negative
same,mutagenic call,"Test System: AMES SALMONELLA TYPHIMURIUM, Strain/Indicator: TA97, Metabolic Activation: NONE, Method: PREINCUBATION",inactive; negative
same,mutagenic call,"Test System: AMES SALMONELLA TYPHIMURIUM, Strain/Indicator: TA97, Metabolic Activation: NONE, Method: STANDARD PLATE",inactive; negative
same,mutagenic call,"Test System: AMES SALMONELLA TYPHIMURIUM, Strain/Indicator: TA97, Metabolic Activation: RAT LIVER S-9, AROCLOR 1254 (10%), Method: PREINCUBATION",inactive; negative
same,mutagenic call,"Test System: AMES SALMONELLA TYPHIMURIUM, Strain/Indicator: TA97, Metabolic Activation: RAT LIVER S-9, AROCLOR 1254 (30%), Method: PREINCUBATION",inactive; negative
same,mutagenic call,"Test System: AMES SALMONELLA TYPHIMURIUM, Strain/Indicator: TA97, Metabolic Activation: RAT, LIVER, S-9, AROCLOR 1254, Method: STANDARD PLATE",inactive; negative
same,mutagenic call,"Test System: AMES SALMONELLA TYPHIMURIUM, Strain/Indicator: TA97, Metabolic Activation: S-9, Method: STANDARD PLATE",inactive; negative
same,mutagenic call,"Test System: AMES SALMONELLA TYPHIMURIUM, Strain/Indicator: TA98, Metabolic Activation: HAMSTER LIVER S-9, AROCLOR 1254 (10%), Method: PREINCUBATION",inactive; negative
same,mutagenic call,"Test System: AMES SALMONELLA TYPHIMURIUM, Strain/Indicator: TA98, Metabolic Activation: HAMSTER LIVER S-9, AROCLOR 1254 (30%), Method: PREINCUBATION",inactive; negative
same,mutagenic call,"Test System: AMES SALMONELLA TYPHIMURIUM, Strain/Indicator: TA98, Metabolic Activation: NONE, Method: PREINCUBATION",inactive; negative
same,mutagenic call,"Test System: AMES SALMONELLA TYPHIMURIUM, Strain/Indicator: TA98, Metabolic Activation: RAT LIVER S-9, AROCLOR 1254 (10%), Method: PREINCUBATION",inactive; negative
same,mutagenic call,"Test System: AMES SALMONELLA TYPHIMURIUM, Strain/Indicator: TA98, Metabolic Activation: RAT LIVER S-9, AROCLOR 1254 (30%), Method: PREINCUBATION",inactive; negative
same,mutagenic call,"Test System: AMES SALMONELLA TYPHIMURIUM, Strain/Indicator: TA98, Metabolic Activation: RAT, LIVER, S-9, AROCLOR 1254, Method: STANDARD PLATE",inactive; negative
same,mutagenic call,"Test System: AMES SALMONELLA TYPHIMURIUM, Strain/Indicator: TA98, Metabolic Activation: RAT, LIVER, S-9, Method: STANDARD PLATE",inactive; negative
same,mutagenic call,"Test System: AMES SALMONELLA TYPHIMURIUM, Strain/Indicator: TA98, Metabolic Activation: S-9, Method: STANDARD PLATE",inactive; negative
same,mutagenic call,"Test System: AMES SALMONELLA TYPHIMURIUM, Strain/Indicator: TA100, Metabolic Activation: HAMSTER LIVER S-9, AROCLOR 1254 (10%), Method: PREINCUBATION",inactive; negative
same,mutagenic call,"Test System: AMES SALMONELLA TYPHIMURIUM, Strain/Indicator: TA100, Metabolic Activation: HAMSTER LIVER S-9, AROCLOR 1254 (30%), Method: PREINCUBATION",inactive; negative
same,mutagenic call,"Test System: AMES SALMONELLA TYPHIMURIUM, Strain/Indicator: TA100, Metabolic Activation: NONE, Method: PREINCUBATION",inactive; negative
same,mutagenic call,"Test System: AMES SALMONELLA TYPHIMURIUM, Strain/Indicator: TA100, Metabolic Activation: RAT LIVER S-9, AROCLOR 1254 (10%), Method: PREINCUBATION",inactive; negative
same,mutagenic call,"Test System: AMES SALMONELLA TYPHIMURIUM, Strain/Indicator: TA100, Metabolic Activation: RAT LIVER S-9, AROCLOR 1254 (30%), Method: PREINCUBATION",inactive; negative
same,mutagenic call,"Test System: AMES SALMONELLA TYPHIMURIUM, Strain/Indicator: TA100, Metabolic Activation: RAT, LIVER, S-9, AROCLOR 1254, Method: STANDARD PLATE",inactive; negative
same,mutagenic call,"Test System: AMES SALMONELLA TYPHIMURIUM, Strain/Indicator: TA100, Metabolic Activation: RAT, LIVER, S-9, Method: STANDARD PLATE",inactive; negative; toxicity at 100 ug/plate
same,mutagenic call,"Test System: AMES SALMONELLA TYPHIMURIUM, Strain/Indicator: TA100, Metabolic Activation: S-9, Method: STANDARD PLATE",inactive; negative
same,mutagenic call,"Test System: AMES SALMONELLA TYPHIMURIUM, Strain/Indicator: TA102, Metabolic Activation: NONE, Method: STANDARD PLATE",inactive; negative
same,mutagenic call,"Test System: AMES SALMONELLA TYPHIMURIUM, Strain/Indicator: TA102, Metabolic Activation: S-9, Method: STANDARD PLATE",inactive; negative
same,mutagenic call,"Test System: AMES SALMONELLA TYPHIMURIUM, Strain/Indicator: TA1535, Metabolic Activation: HAMSTER LIVER S-9, AROCLOR 1254 (30%), Method: PREINCUBATION",inactive; negative
same,mutagenic call,"Test System: AMES SALMONELLA TYPHIMURIUM, Strain/Indicator: TA1535, Metabolic Activation: HAMSTER LIVER, S-9, AROCLOR 1254 (10%), Method: PREINCUBATION",inactive; negative
same,mutagenic call,"Test System: AMES SALMONELLA TYPHIMURIUM, Strain/Indicator: TA1535, Metabolic Activation: NONE, Method: PREINCUBATION",inactive; negative
same,mutagenic call,"Test System: AMES SALMONELLA TYPHIMURIUM, Strain/Indicator: TA1535, Metabolic Activation: RAT LIVER S-9, AROCLOR 1254 (10%), Method: PREINCUBATION",inactive; negative
same,mutagenic call,"Test System: AMES SALMONELLA TYPHIMURIUM, Strain/Indicator: TA1535, Metabolic Activation: RAT LIVER S-9, AROCLOR 1254 (30%), Method: PREINCUBATION",inactive; negative
same,mutagenic call,"Test System: AMES SALMONELLA TYPHIMURIUM, Strain/Indicator: TA1535, Metabolic Activation: RAT, LIVER, S-9, AROCLOR 1254, Method: STANDARD PLATE",inactive; negative
same,mutagenic call,"Test System: AMES SALMONELLA TYPHIMURIUM, Strain/Indicator: TA1535, Metabolic Activation: RAT, LIVER, S-9, Method: STANDARD PLATE",inactive; negative; toxicity at 50 and 100 ug/plate
same,mutagenic call,"Test System: AMES SALMONELLA TYPHIMURIUM, Strain/Indicator: TA1537, Metabolic Activation: RAT, LIVER, S-9, AROCLOR 1254, Method: STANDARD PLATE",inactive; negative
same,mutagenic call,"Test System: AMES SALMONELLA TYPHIMURIUM, Strain/Indicator: TA1537, Metabolic Activation: RAT, LIVER, S-9, Method: STANDARD PLATE",inactive; negative
same,mutagenic call,"Test System: AMES SALMONELLA TYPHIMURIUM, Strain/Indicator: TA1538, Metabolic Activation: NONE, Method: STANDARD PLATE",inactive; negative
same,mutagenic call,"Test System: AMES SALMONELLA TYPHIMURIUM, Strain/Indicator: TA1538, Metabolic Activation: RAT, LIVER, S-9, AROCLOR 1254, Method: STANDARD PLATE",inactive; negative
same,mutagenic call,"Test System: AMES SALMONELLA TYPHIMURIUM, Strain/Indicator: TA1538, Metabolic Activation: RAT, LIVER, S-9, Method: STANDARD PLATE",inactive; negative
same,mutagenic call,"Test System: E. COLI, Strain/Indicator: WP2 UVRA, Metabolic Activation: HAMSTER, LIVER, S-9, AROCLOR 1254, Method: STANDARD PLATE",inactive; negative
same,mutagenic call,"Test System: E. COLI, Strain/Indicator: WP2 UVRA, Metabolic Activation: HAMSTER, LIVER, S-9, Method: STANDARD PLATE",inactive; negative
same,mutagenic call,"Test System: E. COLI, Strain/Indicator: WP2 UVRA, Metabolic Activation: MOUSE, LIVER, S-9, AROCLOR 1254, Method: STANDARD PLATE",inactive; negative
same,mutagenic call,"Test System: E. COLI, Strain/Indicator: WP2 UVRA, Metabolic Activation: MOUSE, LIVER, S-9, Method: STANDARD PLATE",inactive; negative
same,mutagenic call,"Test System: E. COLI, Strain/Indicator: WP2 UVRA, Metabolic Activation: NONE, Method: STANDARD PLATE",inactive; negative
same,mutagenic call,"Test System: E. COLI, Strain/Indicator: WP2 UVRA, Metabolic Activation: RAT, LIVER, S-9, AROCLOR 1254, Method: STANDARD PLATE",inactive; negative
same,mutagenic call,"Test System: E. COLI, Strain/Indicator: WP2 UVRA, Metabolic Activation: RAT, LIVER, S-9, Method: STANDARD PLATE",inactive; negative
same,mutagenic call,"Test System: MOUSE LYMPHOMA, Strain/Indicator: L5178Y (TK+/+)/OUABAIN, Metabolic Activation: NONE, Method: SUSPENSION/PLATE",inactive; negative
same,mutagenic call,"Test System: MOUSE LYMPHOMA, Strain/Indicator: L5178Y (TK+/+)/OUABAIN, Metabolic Activation: RAT LIVER S-9, AROCLOR 1254, Method: SUSPENSION/PLATE",active; positive
same,mutagenic call,"Test System: MOUSE LYMPHOMA, Strain/Indicator: L5178Y (TK+/-)/TRIFLUROTHYMIDINE, Metabolic Activation: NONE, Method: SUSPENSION/PLATE",inactive; negative
same,mutagenic call,"Test System: MOUSE LYMPHOMA, Strain/Indicator: L5178Y (TK+/-)/TRIFLUROTHYMIDINE, Metabolic Activation: RAT LIVER S-9, AROCLOR 1254, Method: SUSPENSION/PLATE",active; positive
same,mutagenic call,"Test System: MOUSE LYMPHOMA, Strain/Indicator: L5178Y (TK+/TK-), Metabolic Activation: NONE, Method: MICROWELL",inactive; negative
same,mutagenic call,"Test System: MOUSE LYMPHOMA, Strain/Indicator: L5178Y (TK+/TK-), Metabolic Activation: S-9, Method: MICROWELL",active; positive
same,mutagenic call,"Test System: UDS RAT HEPATOCYTES, Strain/Indicator: THY INCORP (18-20 HR), Metabolic Activation: NONE, Method: LIQUID SCINTILLATION COUNTING",inactive; negative
same,mutagenic call,"Test System: UDS RAT HEPATOCYTES, Strain/Indicator: THY INCORP, Metabolic Activation: NONE, Method: LIQUID SCINTILLATION COUNTING",inactive; negative

# Source: PubChem BioAssay AID1259407 (Chemical Carcinogenesis Research Information System (CCRIS), 2018)
